Values quoted from earlier work as cited in patent US20230285276A1, “Implantable Medical Device for the Delivery of Aromatase Inhibitor” (Celanese EVA Performance Polymers LLC, priority 2022, published 2023).

Tests used:
circulating estrogen = conditions: postmenopausal women
[1] = test system: adrenal biosynthesis of corticosteroids or aldosterone; conditions: in vivo

For C=C1C[C@@H]2[C@H](CC[C@]3(C)C(=O)CC[C@@H]23)[C@@]2(C)C=CC(=O)C=C12 [Exemestane, 6-methylenandrosta-1,4-diene-3,17-dione], the “solubility in N, N-dimethylformamide” value (N, N-dimethylformamide, descriptive term) is listed as “freely soluble”, the solubility in methanol (methanol, descriptive term) is listed as “soluble” and the “solubility in water (descriptive term)” value (water) is listed as “practically insoluble”. For the same compound, the circulating estrogen concentration (circulating estrogen) was “lowers” and the “effect on adrenal biosynthesis of corticosteroids or aldosterone” value [1] was “no detectable effect”.
